The test system of series [1] is IL-6 mRNA expression. Put plainly: Inhibition of IL-6 mRNA expression in LPS-treated HaCaT cells (real-time PCR). It is filed as cell-based, Human. The note with it: for mRNA Expression (%) (10 μM) IL-6: HaCaT cells, 10 μM compound pretreatment then LPS, LPS alone set to 100%; for IC50: Homo sapiens, HaCaT. As to the method: (§1) Human keratinocytes HaCaT or alpha mouse liver 12 (AML-12) cells were obtained from Cell Lines Service GmbH (Eppelheim, Germany). The cells were cultured in Dulbecco's modified Eagle's medium (DMEM, HyClone) supplemented with 10% fetal bovine serum (HyClone) (HaCaT cells) and 1% penicillin/streptomycin (HyClone) and maintained at 37° C. in a humidified atmosphere containing 5% CO2. AML-12 cells were pretreated with compounds at a concentration of 10 μM 1 hour before LPS treatment and then treated with LPS (100 ng/mL) for 24 hours.
(§2) Total RNA was isolated from tissues using TRIzol reagent (Invitrogen), and reverse transcription (RT) and real-time PCR analysis were performed using the ABI PRISM 7700 system (PE Biosystems). Data were normalized to the amount of GAPDH mRNA.
(§3) 13 novel synthetic compounds (Compounds 5a to 5m) and 3 synthetic intermediates (Compounds 4d, 4e, and 41) were screened by measuring the mRNA expression levels of IL-6 and IL-1β. Human keratinocyte HaCaT cell lines were used to evaluate the mRNA expression inhibition effect. […] Each compound was administered at a concentration of 10 μM.
Dose-response studies were performed for the above five compounds at different concentrations to obtain IC50 values (μM) (FIG. 1 and Table 3).

Series [2] deals with IL-1β mRNA expression. Put plainly: Inhibition of IL-1β mRNA expression in LPS-treated HaCaT cells (real-time PCR). It is filed as cell-based, Human. The note with it: 10 μM compound pretreatment then LPS, LPS alone set to 100%. As to the method:
as §1, §2, §3
(Quantitative PCR measures a nucleic acid by following its amplification.)

The test system of series [3] is pY-STAT3. Put plainly: Western blotting of pY-STAT3 in LPS-treated AML-12 cells. It is filed as cell-based, mouse. The conditions noted are these: 10 μM compound, FIG. 2. Here is the method: as §1
(§4) Protein levels in cells and mouse tissues were determined by immunoblot analysis. […] After quantifying the protein concentrations in the lysates (supernatant) using the Bradford assay (Bio-Rad, CA, USA), the lysates were mixed with a sample buffer (62.5 mM Tris-HCl pH 6.8, 10% glycerol, 2% sodium dodecyl sulfate, 0.0125% bromophenol blue, 2.5% β-mercaptoethanol) and heated at 95° C. for 5 minutes. […] Immune complexes were detected with horseradish peroxidase (HRP)-conjugated secondary antibodies (Bio-Rad, Hercules, CA, USA) and enhanced with chemiluminescence reagents (Ab Frontier, Daejeon, Korea) using IQ800 (GE Healthcare, Sweden). The abundance of the target protein was quantified by densitometric analysis of the immunoblot. […]

The test system of series [4] is p-IκBα. Put plainly: Western blotting of p-IκBα in LPS-treated AML-12 cells. It is filed as cell-based, mouse. The conditions noted are these: 10 μM compound, FIG. 2. As to the method:
as §1, §4
(In general: A western blot detects proteins with antibodies after separation by electrophoresis.)

Series [5] deals with p-NF-κB p65. Put plainly: Western blotting of p-NF-κB p65 in LPS-treated AML-12 cells. Format: cell-based, mouse. The conditions noted are these: 10 μM compound, FIG. 2. Here is the method:
as §1, §4

For series [6], the system named is IL-1β mRNA. Put plainly: IL-1β mRNA level in liver tissue of LPS-injected mice. It is filed as in vivo, mice (C57BL/6J). The conditions noted are these: 10 mg/kg in olive oil 1 hour before LPS (1 mg/kg i.p., 6 h). Here is the method:
(§5) 10-week-old male C57BL/6J mice (Jackson Laboratory, Bar Harbor, ME, USA) were used in the experiment. All animal experiments were performed in accordance with the protocol approved by the Institutional Animal Care and Use Committee of Ewha Womans University (EWHA IACUC 19-001). The mice were housed in a temperature-controlled room (20 to 22° C. with a 12 h light:12 h dark cycle). The compounds prepared according to Examples 1 to 10 were diluted with olive oil (vehicle, Sigma) to a volume of 200 μL (10 mg/kg) and administered to mice (male C57BL/6J, […]) 1 hour before LPS administration. LPS (1 mg/kg, 6 h) was resuspended in saline and injected intraperitoneally at a dose of 1 mg/kg of body weight. At the end of the experiment, the mice were sacrificed (tribromoethanol, 250 mg/kg, i.p.) and the liver and blood were collected for further analysis.
as §2
(§6) 2 compounds (Compounds 4d and 5f) were selected for in vivo assay. […] In order to evaluate the anti-inflammatory activity in mice, the mRNA expressions of IL-1β, IL-6, and TNF-α were measured, and the results are shown in FIG. 3.

Series [7] has as its system IL-6 mRNA. Put plainly: IL-6 mRNA level in liver tissue of LPS-injected mice. It is filed as in vivo, mice (C57BL/6J). The note with it: 10 mg/kg in olive oil 1 hour before LPS (1 mg/kg i.p., 6 h). As to the method: as §5, §2, §6
Series [8] concerns TNF-α mRNA. Put plainly: TNF-α mRNA level in liver tissue of LPS-injected mice. It is filed as in vivo, mice (C57BL/6J). The note with it: 10 mg/kg in olive oil 1 hour before LPS (1 mg/kg i.p., 6 h). Here is the method:
as §5, §2, §6

Series [9] relates to LPS-induced liver inflammatory disease model. Put plainly: Liver histology (H&E) and F4/80 immunohistochemistry in LPS-induced liver inflammatory disease model. Format: in vivo, mice (C57BL/6J). The conditions noted are these: mice, compared to LPS alone; for F4/80-positive cells in liver: immunohistochemistry. Here is the method:
as §5
First, 4% paraformaldehyde-fixed liver tissues were embedded in paraffin according to standard procedures. 4-micron-thick liver tissue sections were prepared, and immunohistochemical staining was performed according to the manufacturer's instructions. 4-micron-thick liver tissue sections were stained with hematoxylin and eosin (H&E) or subjected to immunohistochemical characterization using an antibody specific for F4/80 (Abcam, Cambridge, MA, UK). All steps were performed at room temperature, and the tissues were washed with tap water after each step. The sections were photographed using a Zeiss microscope (Carl Ziess, Thronwood, NY, USA) equipped with AxioCam software.
As a result of LPS administration, macrophage infiltration into the liver tissue was observed. When Compounds 5f and 4d were administered, the inflammatory response was improved compared to when LPS was administered alone.
In order to characterize the phenotype of macrophages accumulated in LPS-induced inflammation, immunohistochemical studies were performed using antibodies against F4/80 as a marker of mature macrophages (FIG. 4b). When LPS was administered alone to induce an inflammatory response, hepatic macrophage accumulation increased. As a result, there was a marked elevation of the number of F4/80-positive cells.

Series [10] can be described thus: Plasma ALT and AST levels in LPS-injected mice. Format: in vivo, mice (C57BL/6J). The note with it: for plasma alanine aminotransferase (ALT) level / plasma aspartate transaminase (AST) level: compared to LPS alone; for hepatotoxicity in vivo: judged by ALT and AST levels. As to the method:
as §5
The concentrations of plasma alanine aminotransferase (ALT) and aspartate transaminase (AST) were determined using an EnzyChrom™ assay kit (BioAssay Systems, Hayward, CA, USA) according to the manufacturer's recommendations.
Consistent with the altered histological characteristics, plasma alanine aminotransferase (ALT) and aspartate transaminase (AST) levels increased after LPS administration (FIGS. 4c and 4d), and when Compounds 5f and 4d were administered, ALT and AST levels decreased.

Setting [11] is: dose-response of normalized IL-6 mRNA expression (FIG. 1), read-out: IC50.
The mark [12] stands for this setting: log of IC50, dose-response of normalized IL-6 mRNA expression (FIG. 1), read-out: Log (converted).

Read-outs that look alike come from different tables or passages of the source.

As for `Cc1ccc2oc(Nc3ccc(NC(=O)CCCNC(=O)OC(C)(C)C)cc3)nc2c1` [Compound 4d, tert-butyl 4-(4-(5-methylbenzo[d]oxazol-2-ylamino)phenylamino)-4-oxobutylcarbamate], the “mRNA Expression (%) (10 μM) IL-6” value in [1] was 2.4%. Further, the IC50 in series [1] (setting [11]) came out at 0.0604 nM. Also, the IC50 in series [1] (setting [12]) was 0.0603 nM. Also, the “mRNA Expression (%) (10 μM) IL-1β” value in [2] was 0.03%. Further, the “expression level of pY-STAT3” value in [3] is “significantly down-regulated”. The “expression level of p-IκBα” value in series [4] is “significantly down-regulated”. Moreover, the “expression level of p-NF-κB p65” value in series [5] is on record as “significantly down-regulated”. For the same compound, in series [6], the “mRNA level of IL-1β in vivo” value is listed as “significantly reduced”. For the same compound, in series [7], the “mRNA level of IL-6 in vivo” value is recorded as “significantly reduced”. For the same compound, in series [8], the “mRNA level of TNF-α in vivo” value is “significantly reduced”. Further, in series [9], the “inflammatory response in liver histology (H&E)” value was “improved” and the “F4/80-positive cells in liver” value is listed as “significant decrease”. For the same compound, in series [10], the “plasma alanine aminotransferase (ALT) level” value is “decreased”, the “plasma aspartate transaminase (AST) level” value is given as “decreased” and the hepatotoxicity in vivo entry is given as “without hepatotoxicity”.

Turning to `CC(C)(C)c1ccc2oc(Nc3ccc(NC(=O)CCCN)cc3)nc2c1` [Compound 5f, 4-amino-N-(4-(5-tert-butylbenzo[d]oxazol-2-ylamino)phenyl)butanamide], the “mRNA Expression (%) (10 μM) IL-6” value in [1] came out at 3.26%. The IC50 in series [1] (setting [11]) is 0.444 nM. Further, the IC50 in series [1] (setting [12]) is 0.447 nM. The “mRNA Expression (%) (10 μM) IL-1β” value in series [2] is 2.83%. The “expression level of pY-STAT3” value in series [3] was “significantly down-regulated”. In addition, the “expression level of p-IκBα” value in series [4] is given as “significantly down-regulated”. For the same compound, the “expression level of p-NF-κB p65” value in series [5] is “significantly down-regulated”. The “mRNA level of IL-1β in vivo” value in [6] was “significantly reduced”. In addition, in series [7], the “mRNA level of IL-6 in vivo” value is “significantly reduced”. For the same compound, in [8], the “mRNA level of TNF-α in vivo” value is recorded as “significantly reduced”. In [9], the “inflammatory response in liver histology (H&E)” value is reported as “improved” and the “F4/80-positive cells in liver” value was “significant decrease”. In series [10], the “plasma alanine aminotransferase (ALT) level” value is “decreased”, the “plasma aspartate transaminase (AST) level” value is “decreased” and the hepatotoxicity in vivo entry was “without hepatotoxicity”.

For the compound `Cc1cccc2oc(Nc3ccc(NC(=O)CCCN)cc3)nc12` [Compound 5c, 4-amino-N-(4-(4-methylbenzo[d]oxazol-2-ylamino)phenyl)butanamide], the “mRNA Expression (%) (10 μM) IL-6” value in series [1] stood at 2.08%. Further, the figures for the IC50 in series [1] (setting [11]) and in series [1] (setting [12]) were 1640 nM and 1660 nM, respectively. The “mRNA Expression (%) (10 μM) IL-1β” value in series [2] stood at 0.79%.

Regarding `COc1cc(NC(=O)CCCN)ccc1Nc1nc2cc(C(C)(C)C)ccc2o1` [Compound 5m, 4-amino-N-(4-(5-tert-butylbenzo[d]oxazol-2-ylamino)-3-methoxyphenyl)butanamide], the “mRNA Expression (%) (10 μM) IL-6” value in series [1] amounted to 4.07%. For the same compound, the IC50 in series [1] (setting [11]) was 0.199 nM; in series [1] (setting [12]) it was 0.2 nM. For the same compound, the “mRNA Expression (%) (10 μM) IL-1β” value in series [2] stood at 0.49%.

Regarding `Cc1ccc2oc(Nc3ccc(NC(=O)CCCN)cc3)nc2c1` [Compound 5d, 4-amino-N-(4-(5-methylbenzo[d]oxazol-2-ylamino)phenyl)butanamide], the “mRNA Expression (%) (10 μM) IL-6” value in [1] is listed as 3.39%. Moreover, the IC50 is 32.7 nM in series [1] (setting [11]) and 33.1 nM in series [1] (setting [12]). For the same compound, the “mRNA Expression (%) (10 μM) IL-1β” value in series [2] is recorded as 0.03%.
